Experimental data from patent US9066947B2, “Indolyl-substituted pyrazino[1,2-b]isoquinolines for cancer treatment” (Everest Biosciences, Inc., priority 2009, dated 2015).

How the values were obtained:
[1] = Basic toxicity study in healthy mice; format: in vivo; conditions: for cage-side observations (food consumption, daily activities, toxic effect) / histology of livers and kidney: 13 days
Procedure: (§1) For the assessment of toxicity of Substance X, healthy mice were treated with Substance X by intravenous injection at a dose of 100 mg/kg or 200 mg/kg once every other day for 13 days. Body weight of each mouse was measured periodically from Day 1 to Day 13 of the treatment. Cage-side observations including: mortality, moribundity, food consumption and activities were performed once every other day. Blood samples were taken on Day 1 and Day 13 for measurement of blood cell counts. To assess toxicity of Substance X on mice with tumors, mice bearing subcutaneous PC-3 tumors were treated with Substance X at a high dose of 200 mg/kg once every other day for 19 days. Body weight was measured and cage-side observations were performed once every other day. Lymph node, liver, lung, spleen and femurs were removed from each mouse and were examined. Toxicity of Substance X was also assessed in tumor-bearing mice treated with 80 mg/kg of Substance X daily as described above.

[2] = Safety in PC-3 tumor-bearing xenograft mice; format: in vivo; conditions: PC-3 tumor-bearing mice, 40 mg/kg daily for 30 days
Procedure: as §1
We then tested the high dose of Substance X in PC-3 xenograft mice, thereby mimicking its effect on prostate cancer patients. We generated mouse xenograft of human PC-3 tumors by subcutaneous implantation of tumor cells into nude mice. We further tested safety of the dose of 40 mg/kg which generated significant anti-tumor activity in the xenograft mouse model.

[3] = tested on: PC-3 tumors; assay: PC-3 prostate cancer xenograft mouse model of tumor growth and metastasis; format: in vivo, athymic NMRI nude mice
Text: Athymic NMRI nude mice between 6-8 weeks old (Taconic; Bomholt, Denmark) were used. Prostate cancer xenograft mouse model was created by implanting hormone-independent PC3 tumor cells subcutaneously into athymic nude mice as previously described (Wegiel B, Bjartell A, Tuomela J, et al.: Multiple cellular mechanisms related to cyclin Al in prostate cancer invasion and metastasis. Journal of the National Cancer Institute 100: 10221036, 2008).
PC-3 cells were purchased from American Type Culture Collection (Manassas, V A) and cultured in RPMI-1640 supplemented with 10% Fetal Bovine Serum. PC-3 cells at 1×10^6/per mouse were used. The mice were divided into three groups (6 mice per group). The first group allowed tumors to grow between 170-400 mm^3 in size before starting the treatment. The second group allowed tumors to grow between 550-650 mm^3 in size before starting the treatment. The third group allowed tumors to grow between 700-800 mm^3 in size before starting the treatment. The tumor diameters were measured twice weekly using calipers. The tumor volumes were calculated using an equation of a*(b2/2) where a and b represent the length and width of the tumor, respectively.
The treatment of the compound of Example 1 (also referred to herein as “Substance X”) or PBS containing 5% DMSO (vehicle) as Control was started when tumors reached the desired size as described above. In the first experimental setting, Substance X was administered intravenously once every other day. In the second experimental setting, Substance X was administrated orally once every other day. Tumor growth was assessed periodically as described in Results. The mice were sacrificed after treatment by euthanization via isofluorene inhalation. Lymph node, liver, lung, spleen and femurs were removed from each mouse. Half of the tumor tissues were used for histology and immunohistochemical analysis. For histology analysis, tissues were fixed in 4% paraformaldehyde and embedded in paraffin. The sections were stained with hematoxylineosin (H&E) or imunohistochemical stained with antibodies and analyzed under an optical microscope. The other half of the tissues were used for protein analysis and thus were snapfrozen in liquid nitrogen. The body weights of the mice on the first and last day of the treatment were collected and compared. Tumor invasion and metastasis were examined in various tissues from the sacrificed mice.
For a comparison study, mice with tumors at 190-250 mm^3 in size were treated with the cytotoxic drug Etoposide (Sigma) at a dose of 20 mg/kg via IV injection once every other day. The tumor size was measured as described in the Results. Three mice were treated with Etoposide or the vehicle as Control. The mice were sacrificed and the tissues were collected as described above.

[4] = tested on: VEGF; assay: Immunohistochemical analysis of VEGF expression in PC-3 xenograft tumors; format: in vivo, human; conditions: versus Control mice (FIG. 5)
Procedure: (§2) FIG. 5: Effect of Substance X on Expression of VEGF and VEGF Receptor 2 Immunohistochemical analysis of VEGF and VEGF receptor 2 was performed in tumors from the Control mice and the mice treated with Substance X. The representative pictures are shown. Tumor sections (Control) or (Substance X) were stained with antibody against human VEGF and VEGF Receptor 2.
(§3) The treatment of the compound of Example 1 (also referred to herein as “Substance X”) or PBS containing 5% DMSO (vehicle) as Control was started when tumors reached the desired size as described above. In the first experimental setting, Substance X was administered intravenously once every other day. […] Tumor growth was assessed periodically as described in Results. […] The sections were stained with hematoxylineosin (H&E) or imunohistochemical stained with antibodies and analyzed under an optical microscope. […]
(§4) Immunohistochemistry on tumor tissues was performed as previously described (Wegiel B, Bjartell A, Ekberg J, Gadaleanu V, Brunhoff C and Persson J L: A role for cyan AI in mediating the autocrine expression of vascular endothelial growth factor in prostate cancer. Oncogene 24: 6385-6393, 2005) by using antibodies to human CD-31 (Dako, Goistrup, Denmark A/S). […] For analysis of tumor angiogenesis, tumor sections stained with antibody against CD3I were examined and quantified. […]

[5] = tested on: VEGF receptor 2; assay: Immunohistochemical analysis of VEGF receptor 2 expression in PC-3 xenograft tumors; format: in vivo, human; conditions: versus Control mice (FIG. 5)
Procedure: as §2, §3, §4

[6] = tested on: CD31; assay: Quantification of angiogenesis by CD31 immunohistochemistry in PC-3 xenograft tumors; format: in vivo, human; conditions: versus Control tumors (FIG. 6)
Procedure: B. Immunohistochemical analysis of tumors from the Control mice and mice treated with Substance X for the expression of CD31. Tumor sections (Control) or (Substance X) were stained with antibody against CD31. (B). Regions of high vascular density at centre or the edge areas within the tumors were examined. The number of CD31-positive pixels per microscopic field was recorded. At least two sections per tumor and three views per section were determined. The statistical T-test was performed and was two-sided and P value less than 0.05 was considered to be statistically significant, P value less than 0.01 is labelled as two asterisks.
Immunohistochemistry on tumor tissues was performed as previously described (Wegiel B, Bjartell A, Ekberg J, Gadaleanu V, Brunhoff C and Persson J L: A role for cyan AI in mediating the autocrine expression of vascular endothelial growth factor in prostate cancer. Oncogene 24: 6385-6393, 2005) by using antibodies to human CD-31 (Dako, Goistrup, Denmark A/S). Antirabbit peroxidase-conjugated secondary antibodies were applied. Diaminobenzidine colorimetric reagent solution (Dako) was used. […] For analysis of tumor angiogenesis, tumor sections stained with antibody against CD3I were examined and quantified. […] The number of CD31-positive pixels per microscopic field was recorded. At least two sections per tumor and three views per section were determined.

[7] = tested on: PC-3 prostate cancer cells; assay: Cell proliferation assay (trypan blue viable cell count) and IC50 determination; format: cell-based, human; conditions: PC-3 cells
Procedure: All new synthesized compounds and Etoposide were first dissolved in 100% DMSO at initial concentration of 100 mM, and then diluted at final concentration of 200 uM in culture medium. Commercial form of Avastin (25 mg/ml) was diluted to appropriate concentrations in culture medium.
Hormone-independent and metastatic PC-3 prostate cancer cells were purchased from the American Type Culture Collection (Manassas, Va., USA) and cultured in RPMI-1640 supplemented with 10% fetal bovine serum. Etoposide was purchased from Sigma, Avastin from Roche.
For cell counting a total of 6×10^4 cells at a density of 0.3×10^6/ml were seeded in 96-well plate. The cells were treated with compounds, Etoposide or Avastin as positive controls at 1 uM, 5 uM, 10 uM, 20 uM, 50 uM, 100 uM for 48 hours. For Avastin 5 uM, 20 uM and 50 uM concentrations were used. The cells were labeled with trypan blue and the viable cells were quantified.

[8] = tested on: PC-3 tumors; assay: PC-3 prostate cancer xenograft mouse model of tumor growth and metastasis; format: in vivo, athymic NMRI nude mice; conditions: tumors 500-600 mm3 at start, 40 mg/kg intravenous injection, day 20 (FIG. 2)
[9] = healthy mice, 100 mg/kg i.v. once every other day

CN1CC(=O)N2[C@H](c3c[nH]c4ccccc34)c3cc4c(cc3C[C@H]2C1=O)OCO4 [Substance X, (5S,9aS)-5-(1H-Indol-3-yl)-8-methyl-7,8,9a,10-tetrahydro-5H-1,3-dioxa-5a,8-diaza-cyclopenta[b]anthracene-6,9-dione]
cage-side observations (food consumption, daily activities, toxic effect) ([1]; 200 mg/kg once every other day): no abnormality on food consumption and daily activities, or any observable toxic effect
histology of livers and kidney ([1]; 200 mg/kg once every other day): no abnormality in histology
body weights ([1]; 200 mg/kg once every other day, 13 days (FIG. 1B)): steady throughout the study period
cage-side observations (food consumption, daily activities, toxic effect) [1, 9]: no abnormality on food consumption and daily activities, or any observable toxic effect
histology of livers and kidney [1, 9]: no abnormality in histology
change in body weight ([1]; healthy mice, 100 mg/kg i.v. once every other day, 13 days (FIG. 1A)): no significant change in body weight
body weights [2]: remained constant throughout the period of treatment
cage-side observations (food consumption, daily activities, toxic effect) [2]: no abnormality on food consumption and/or daily activities, or any other observable toxic effect
histology of livers and kidney [2]: no abnormality in histology
tumor size after switch to oral administration ([3]; 40 mg/kg i.v. for 20 days, from day 21 40 mg/kg oral, versus continuous i.v.): slightly larger tumor size than the mice treated by continuous intravenous injection
tumor growth (large and invasive tumors, longer treatment) ([3]; 40 mg/kg intravenous injection for 30 days): inhibited throughout the treatment period and the tumors shrank significantly at the end of the treatment
infiltration of tumor cells into secondary sites (metastasis) ([3]; 40 mg/kg, end of study, histology and immunohistochemical analysis): no infiltration of tumor cells into secondary sites could be detected
size of tumors in whole-tumor histology sections ([3]; VEGF receptor 2 stained sections, versus Control mice (FIG. 6A)): smaller than that from the Control mice
oral bioavailability ([3]; inferred from tumor size after oral versus intravenous 40 mg/kg): orally bioavailable, yet the oral bioavailability is lower than intravenous injection
tumor growth ([3]; tumors 190-240 mm3 at start, 20 mg/kg intravenously, 21 days): tumor shrank
tumor growth, oral administration throughout ([3]; tumors 300-350 mm3 at start, 40 mg/kg oral (FIG. 3)): able to inhibit the tumor growth, although the effect was not as strong as intravenous injection
tumor growth, comparison of Etoposide and Substance X ([3]; tumors about 250 mm3, IV once every other day for 14 days, Etoposide 20 mg/kg, Substance X 40 mg/kg (FIG. 4)): stronger inhibitory effect on tumors as compared to Etoposide
expression of VEGF in tumors [4]: significantly down-regulated
expression of VEGFR2 in tumors [5]: significantly down-regulated
CD31 expression and number of CD31-expressing vessels in tumors [6]: statistically significant decrease
IC50 ([7]; Homo sapiens, viable cells after 48 hours, read-out: IC50 for cell growth inhibition): 30 µM
concentration from which statistically significant cell growth inhibition started ([7]; 48 hours): 5 µM
tumor growth (large tumors) [8]: did not grow but showed a slight decrease in size
